Assay results published in patent US8394801B2, “Quinoxaline derivatives and their use for treating benign and malignant tumour disorders” (Aeterna Zentaris GmbH, priority 2009, dated 2013).
pEC50: −log10 of the molar value.

How the values were obtained:
A549 = assay: Proliferation assay (Alamar Blue / XTT), A549; format: cell-based; conditions: Homo sapiens; cell line A549 (lung)
HCT116 = assay: Proliferation assay (Alamar Blue / XTT), HCT116; format: cell-based; conditions: Homo sapiens; cell line HCT-116 (colon)
MDA MB468 = assay: Proliferation assay (Alamar Blue / XTT), MDA MB468; format: cell-based; conditions: Homo sapiens, MDA-MB-468; cell line MDA-MB468 (breast)
U87MG = assay: Proliferation assay (Alamar Blue / XTT), U87MG; format: cell-based; conditions: Homo sapiens, U-87 MG; cell line U87MG (glioma)
PC-3 = assay: Proliferation assay (Alamar Blue / XTT), PC-3; format: cell-based; conditions: Homo sapiens, cell line PC3 (prostate)

| melting point | SMILES | other results |
| --- | --- | --- |
| 238 to 240 °C | Cc1cc(-c2ccc3ncc(NC(=S)NC(C)(C)C)nc3c2)cc(C)c1O [Compound 25, 1-tert-Butyl-3-[7-(4-hydroxy-3,5-dimethylphenyl)quinoxalin-2-yl]thiourea] |  |
| 237 to 238 °C | CCCCCNC(=S)Nc1cnc2ccc(-c3cc(Cl)c(O)c(Cl)c3)cc2n1 [Compound 90, 1-[7-(3,5-Dichloro-4-hydroxy-phenyl)-quinoxalin-2-yl]-3-pentyl-thiourea] | pEC50 (A549): 5.96; pEC50 (HCT116): 6.00; pEC50 (MDA MB468): 6.50; pEC50 (U87MG): 5.91; pEC50 (PC-3): 6.25 |
| 272 to 273 °C | CCCCCCNC(=O)Nc1cnc2ccc(-c3cc(C)c(O)c(C)c3)cc2n1 [Compound 35, 1-Hexyl-3-[7-(4-hydroxy-3,5-dimethylphenyl)quinoxalin-2-yl]urea] |  |
| 295 to 296 °C | O=C(Nc1cnc2ccc(-c3cc(Cl)c(O)c(Cl)c3)cc2n1)NC1CCCC1 [Compound 81, 1-Cyclopentyl-3-[7-(3,5-dichloro-4-hydroxy-phenyl)-quinoxalin-2-yl]-urea] |  |
| > 300 °C | Cc1cc(-c2ccc3ncc(NC(=O)Nc4ccc5ccccc5c4)nc3c2)cc(C)c1O [Compound 50, 1-[7-(4-Hydroxy-3,5-dimethylphenyl)quinoxalin-2-yl]-3-naphthalen-2-ylurea] |  |
| 271 to 274 °C | O=C(NCCCc1ccccc1)Nc1cnc2ccc(-c3cc(Cl)c(O)c(Cl)c3)cc2n1 [Compound 84, 1-[7-(3,5-Dichloro-4-hydroxy-phenyl)-quinoxalin-2-yl]-3-(3-phenyl-propyl)-urea] |  |
| 265 °C | Cc1cc(-c2ccc3ncc(NC(=O)N[C@H](C)C(C)C)nc3c2)cc(C)c1O [Compound 53, 1-((R)-1,2-Dimethylpropyl)-3-[7-(4-hydroxy-3,5-dimethylphenyl)-quinoxalin-2-yl]urea] |  |
| 237 to 238 °C | CCNC(=S)Nc1cnc2ccc(-c3cc(Cl)c(O)c(Cl)c3)cc2n1 [Compound 88, 1-[7-(3,5-Dichloro-4-hydroxy-phenyl)-quinoxalin-2-yl]-3-ethyl-thiourea] |  |
| 237 to 239 °C | CCCNC(=S)Nc1cnc2ccc(-c3cc(Cl)c(O)c(Cl)c3)cc2n1 [Compound 89, 1-[7-(3,5-Dichloro-4-hydroxy-phenyl)-quinoxalin-2-yl]-3-propyl-thiourea] |  |
| 267 °C | Cc1cc(-c2ccc3ncc(NC(=O)N[C@@H](C)C(C)C)nc3c2)cc(C)c1O [Compound 54, 1-((S)-1,2-Dimethylpropyl)-3-[7-(4-hydroxy-3,5-dimethylphenyl)-quinoxalin-2-yl]urea] |  |
| 289 to 291 °C | CCCCCCCNC(=O)Nc1cnc2ccc(-c3cc(Cl)c(O)c(Cl)c3)cc2n1 [Compound 75, 1-[7-(3,5-Dichloro-4-hydroxy-phenyl)-quinoxalin-2-yl]-3-heptyl-urea] |  |
| > 300 °C | Cc1cc(-c2ccc3ncc(NC(=O)Nc4ccc(Cl)c(Cl)c4)nc3c2)cc(C)c1O [Compound 47, 1-(3,4-Dichlorophenyl)-3-[7-(4-hydroxy-3,5-dimethylphenyl)quinoxalin-2-yl]urea] |  |
| > 300 °C | Cc1ccc(NC(=O)Nc2cnc3ccc(-c4cc(C)c(O)c(C)c4)cc3n2)cc1 [Compound 46, 1-[7-(4-Hydroxy-3,5-dimethylphenyl)quinoxalin-2-yl]-3-p-tolylurea] |  |
| > 300 °C | O=C(Nc1ccccc1)Nc1cnc2ccc(-c3cc(Cl)c(O)c(Cl)c3)cc2n1 [Compound 86, 1-[7-(3,5-Dichloro-4-hydroxy-phenyl)-quinoxalin-2-yl]-3-phenyl-urea] |  |
| 251 °C | CNC(=O)Nc1cnc2ccc(-c3cc(C)c(O)c(C)c3)cc2n1 [Compound 16, 1-[7-(4-Hydroxy-3,5-dimethylphenyl)quinoxalin-2-yl]-3-methylurea] |  |
| 292 to 295 °C | CC(C)(C)NC(=O)Nc1cnc2ccc(-c3cc(Cl)c(O)c(Cl)c3)cc2n1 [Compound 77, 1-tert-Butyl-3-[7-(3,5-dichloro-4-hydroxy-phenyl)-quinoxalin-2-yl]-urea] |  |
| 274 to 275 °C | CCCCCNC(=O)Nc1cnc2ccc(-c3cc(C)c(O)c(C)c3)cc2n1 [Compound 33, 1-[7-(4-Hydroxy-3,5-dimethylphenyl)quinoxalin-2-yl]-3-pentylurea] |  |
| 298 to 300 °C | CC(C)NC(=O)Nc1cnc2ccc(-c3cc(Cl)c(O)c(Cl)c3)cc2n1 [Compound 76, 1-[7-(3,5-Dichloro-4-hydroxy-phenyl)-quinoxalin-2-yl]-3-isopropyl-urea] |  |
| > 300 °C | Cc1cc(-c2ccc3ncc(NC(=O)NC(C)(C)CC(C)(C)C)nc3c2)cc(C)c1O [Compound 51, 1-[7-(4-Hydroxy-3,5-dimethylphenyl)quinoxalin-2-yl]-3-(1,1,3,3-tetra-methylbutyl)urea] |  |
| 281 to 283 °C | Oc1c(Cl)cc(-c2ccc3ncc(NC(=S)NC4CCCCCC4)nc3c2)cc1Cl [Compound 92, 1-Cycloheptyl-3-[7-(3,5-dichloro-4-hydroxy-phenyl)-quinoxalin-2-yl]-thiourea] |  |
| 275 to 277 °C | CC(C)NC(=O)Nc1cnc2ccc(-c3ccc(O)c(Cl)c3)cc2n1 [Compound 95, 1-[7-(3-Chloro-4-hydroxy-phenyl)-quinoxalin-2-yl]-3-isopropyl-urea] |  |
| 276 to 278 °C | CC(C)NC(=S)Nc1cnc2ccc(-c3cc(Cl)c(O)c(Cl)c3)cc2n1 [Compound 91, 1-[7-(3,5-Dichloro-4-hydroxy-phenyl)-quinoxalin-2-yl]-3-isopropyl-thiourea] |  |
| 297 to 298 °C | CCCCCNC(=O)Nc1cnc2ccc(-c3cc(Cl)c(O)c(Cl)c3)cc2n1 [Compound 71, 1-[7-(3,5-Dichloro-4-hydroxy-phenyl)-quinoxalin-2-yl]-3-pentyl-urea] |  |
| 298 to 300 °C | Cc1cc(-c2ccc3ncc(NC(=O)Nc4cccnc4)nc3c2)cc(C)c1O [Compound 52, 1-[7-(4-Hydroxy-3,5-dimethylphenyl)quinoxalin-2-yl]-3-pyridin-3-ylurea] |  |
| 257 °C | CCNC(=O)Nc1cnc2ccc(-c3cc(C)c(O)c(C)c3)cc2n1 [Compound 19, 1-Ethyl-3-[7-(4-hydroxy-3,5-dimethylphenyl)quinoxalin-2-yl]urea] |  |
| 284 °C | Oc1c(Cl)cc(-c2ccc3ncc(NC(=S)NC4CCCCC4)nc3c2)cc1Cl [Compound 21, 1-Cyclohexyl-3-[7-(3,5-dichloro-4-hydroxyphenyl)quinoxalin-2-yl]-thiourea] |  |
| > 300 °C | COc1ccc(NC(=O)Nc2cnc3ccc(-c4cc(C)c(O)c(C)c4)cc3n2)cc1 [Compound 48, 1-[7-(4-Hydroxy-3,5-dimethylphenyl)quinoxalin-2-yl]-3-(4-methoxy-phenyl)urea] |  |
|  | O=C(NCCc1ccccc1)Nc1cnc2ccc(-c3cc(Cl)c(O)c(Cl)c3)cc2n1 [Compound 85, 1-[7-(3,5-Dichloro-4-hydroxy-phenyl)-quinoxalin-2-yl]-3-phenethyl-urea] | pEC50 (A549): 5.74; pEC50 (HCT116): 5.89; pEC50 (MDA MB468): 5.79; pEC50 (U87MG): 6.31; pEC50 (PC-3): 5.90 |
| 271 to 272 °C | Cc1cc(-c2ccc3ncc(NC(=S)NC4CCCC4)nc3c2)cc(C)c1O [Compound 24, 1-Cyclopentyl-3-[7-(4-hydroxy-3,5-dimethylphenyl)quinoxalin-2-yl]-thiourea] |  |
